Results published in publication PMC4374931 (PLoS ONE, 2015).
Where a name gives a salt, the structure may show the parent alone. Read-outs that look alike come from different tables or passages of the source.

Tests used:
AIZ-AR cells = assay: in vitro; format: cell-based; conditions: 24 h, MTT
Protocol: (§1) AIZ-AR cells were seeded in 96-well plates at density 5x10^4 cells per well. […] Following the incubation, MTT assay was measured spectrophotometrically at 540 nm using Tecan Infinite M2000 plate luminometer.

in vitro = format: cell-based; conditions: human
Protocol: as §1

human androgen receptor [1] = target: T1, human androgen receptor (Homo sapiens, UniProt P10275); assay: Gene reporter assay in AIZ-AR cells, antagonist mode with DHT (100 nM); format: cell-based; conditions: antagonist mode, 24 h
T1 sequence (P10275 whole entry): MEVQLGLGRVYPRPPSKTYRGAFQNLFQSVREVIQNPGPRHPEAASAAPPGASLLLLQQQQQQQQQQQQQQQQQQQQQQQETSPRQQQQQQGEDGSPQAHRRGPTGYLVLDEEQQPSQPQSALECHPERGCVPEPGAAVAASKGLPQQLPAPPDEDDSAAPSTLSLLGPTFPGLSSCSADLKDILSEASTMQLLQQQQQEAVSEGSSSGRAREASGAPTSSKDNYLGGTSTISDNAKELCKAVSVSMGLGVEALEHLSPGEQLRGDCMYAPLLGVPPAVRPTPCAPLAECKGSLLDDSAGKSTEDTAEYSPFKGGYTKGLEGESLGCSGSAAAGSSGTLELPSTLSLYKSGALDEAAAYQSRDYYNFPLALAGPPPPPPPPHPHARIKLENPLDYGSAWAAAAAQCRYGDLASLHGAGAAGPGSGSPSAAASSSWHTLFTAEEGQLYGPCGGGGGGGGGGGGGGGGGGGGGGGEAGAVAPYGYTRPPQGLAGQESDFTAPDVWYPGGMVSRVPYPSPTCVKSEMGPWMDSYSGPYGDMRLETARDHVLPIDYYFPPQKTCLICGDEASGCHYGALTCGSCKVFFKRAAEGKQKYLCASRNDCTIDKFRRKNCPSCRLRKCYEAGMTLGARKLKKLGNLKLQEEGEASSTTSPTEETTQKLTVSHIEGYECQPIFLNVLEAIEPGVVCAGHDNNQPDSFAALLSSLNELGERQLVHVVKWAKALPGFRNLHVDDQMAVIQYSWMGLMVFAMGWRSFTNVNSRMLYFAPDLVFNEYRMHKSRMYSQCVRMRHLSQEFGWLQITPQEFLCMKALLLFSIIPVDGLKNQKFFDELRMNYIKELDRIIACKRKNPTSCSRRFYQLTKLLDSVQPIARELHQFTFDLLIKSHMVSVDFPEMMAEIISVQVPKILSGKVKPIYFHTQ
Protocol: (§2) AIZ-AR cells were seeded in 96-well plates at density 5x10^4 cells per well. […] After the treatments, cells were lysed and luciferase activity was measured in 96-well plate format using Tecan Infinite M2000 plate luminometer.
(§3) Dose-response analyses assays were performed in two different experimental layouts. […] Where appropriate, IC50 (half maximal inhibitory concentration) values were calculated.

human androgen receptor [2] = target: T1, human androgen receptor; assay: Gene reporter assay in AIZ-AR cells, antagonist mode with testosterone (10 nM); format: cell-based
Protocol: as §2, §3

androgen receptor [3] = target: androgen receptor; set-up: method as in Sedlak et al.; conditions: published data; ref Sedlak et al.; cited from earlier work
androgen receptor [4] = target: androgen receptor; set-up: method as in Wilkinson et al.; conditions: published data; ref Wilkinson et al.; cited from earlier work
human androgen receptor [5] = target: T1, human androgen receptor; assay: Gene reporter assay in AIZ-AR cells, agonist mode (luciferase); format: cell-based; conditions: for effect on luciferase activity in agonist mode: 24 h
Protocol: as §2, §3

[6] = log c -5, 24 h, MTT, read-out: % of viability
[7] = log c -6, 24 h, MTT, read-out: % of viability
[8] = log c -7, 24 h, MTT, read-out: % of viability
[9] = log c -8, 24 h, MTT, read-out: % of viability
[10] = log c -9, 24 h, MTT, read-out: % of viability
[11] = log c -10, 24 h, MTT, read-out: % of viability

| Compound | viability at 24 h, 0.1 nM (in vitro) | viability at 24 h, 1 nM (in vitro) | viability at 24 h, 10 nM (in vitro) | viability at 24 h, 100 nM (in vitro) | viability at 24 h, 1 μM (in vitro) | viability at 24 h, 10 μM (in vitro) | also measured |
| --- | --- | --- | --- | --- | --- | --- | --- |
| CC(=O)[C@H]1CC[C@H]2[C@@H]3CCC4=CC(=O)CC[C@]4(C)[C@H]3CC[C@]12C [17α-progesterone] |  |  |  |  |  |  | % of viability (AIZ-AR cells; log c -5): 92.0 ± 3.7%; % of viability (AIZ-AR cells; log c -6): 92.0 ± 3.7%; % of viability (AIZ-AR cells; log c -7): 95.0 ± 4.0%; % of viability (AIZ-AR cells; log c -8): 95.0 ± 4.0%; % of viability (AIZ-AR cells; log c -9): 98.2 ± 2.6% |
| C[C@]12CC[C@@H]3c4ccc(O)cc4CC[C@H]3[C@@H]1CC[C@@H]2O [17β-estradiole, estradiol] | 100% | 107 ± 4.3% | 110 ± 3.2% | 110 ± 6.2% | 110 ± 6.2% | 116 ± 16.4% |  |
| C[C@@H]1C[C@H]2[C@@H]3CCC4=CC(=O)C=C[C@]4(C)[C@@]3(F)[C@@H](O)C[C@]2(C)[C@@]1(O)C(=O)CO [Dexamethasone, dexamethasone] | 100% | 99.8 ± 3.9% | 114 ± 2% | 112.7 ± 1.1% | 111 ± 3.4% | 108 ± 2.6% |  |
| C[C@]12C[C@H](O)[C@H]3[C@@H](CCC4=CC(=O)CC[C@@]43C)[C@@H]1CC[C@@H]2C(=O)CO [Corticosterone, corticosterone] | 100% | 104% | 107 ± 2.5% | 111 ± 5.7% | 109 ± 6.5% | 105 ± 3.4% |  |
| CC(=O)S[C@@H]1CC2=CC(=O)CC[C@]2(C)[C@H]2CC[C@@]3(C)[C@@H](CC[C@@]34CCC(=O)O4)[C@H]12 [Spironolactone, spironolactone] | 100% | 108 ± 1.5% | 112 ± 5.7% | 113 ± 10% | 98.9 ± 5.5% | 58.9 ± 2.5% |  |
| CC/C(=C(/CC)c1ccc(O)cc1)c1ccc(O)cc1 [Diethylstilbestrol, diethylstilbestrol] | 100% | 101 ± 5.1% | 102 ± 7.6% | 102 ± 5.1% | 98 ± 4.3% | 99.9 ± 7% |  |
| CC/C(=C(\c1ccc(O)cc1)c1ccc(OCCN(C)C)cc1)c1ccccc1 [4-hydroxytamoxifen] | 100% | 101.8 ± 1% | 100 ± 5.4% | 104 ± 4.4% | 106 ± 3.8% | 9.2 ± 7.7% | Log IC50 (DHT 100nM) (human androgen receptor [1]; Clone 8): > -5.00; Log IC50 (DHT 100nM) (human androgen receptor [1]; Clone 14): > -5.00; Log IC50 (Testosterone 10 nM) (human androgen receptor [2]; Clone 8, 24 h): > -5.00; Log IC50 (Testosterone 10 nM) (human androgen receptor [2]; Clone 14, 24 h): > -5.00; Literature Log EC50 (androgen receptor [3]): > -5.00; Literature Log EC50 (androgen receptor [4]): > -5.00; Log EC50 (human androgen receptor [5]; Clone 8, 24 h): > -5.00; Log EC50 (human androgen receptor [5]; Clone 14, 24 h): > -5.00 |
| C[C@]12CC[C@H]3[C@@H](CCC4=CC(=O)CC[C@@]43C)[C@@H]1CC[C@@H]2O [Testosterone, testosterone] |  |  |  |  |  |  | viability at 24 h, 10 μM (in vitro; [6]): 105.3 ± 1%; viability at 24 h, 1 μM (in vitro; [7]): 105 ± 6.9%; viability at 24 h, 100 nM (in vitro; [8]): 103 ± 5.6%; viability at 24 h, 10 nM (in vitro; [9]): 108 ± 4.8%; viability at 24 h, 1 nM (in vitro; [10]): 108.6 ± 1%; viability at 24 h, 0.1 nM (in vitro; [11]): 100% |
| C[C@H]1C[C@H]2[C@@H]3CCC4=CC(=O)C=C[C@]4(C)[C@@]3(F)[C@@H](O)C[C@]2(C)[C@@]1(O)C(=O)CO [Betamethasone, betamethasone] | 100% | 105 ± 4% | 110 ± 7.3% | 109 ± 7.9% | 108 ± 14.6% | 101 ± 9.9% |  |
| C#C[C@]1(O)CC[C@H]2[C@@H]3CCC4=Cc5oncc5C[C@]4(C)[C@H]3CC[C@@]21C [Danazol] | 100% | 106 ± 1.5% | 108 ± 6.9% | 109 ± 10.6% | 108 ± 11.6% | 114 ± 12.1% |  |
| C[C@]12C=CC(=O)C=C1CC[C@H]1[C@@H]3C[C@@H](O)[C@](O)(C(=O)CO)[C@@]3(C)C[C@H](O)[C@@]12F [Triamcinolone, triamcinolone] | 100% | 101 ± 4.2% | 100 ± 8.2% | 105 ± 11.4% | 103 ± 11% | 101 ± 5.4% |  |
| CC(=O)[C@H]1CC[C@H]2[C@@H]3CCC4=CC(=O)CC[C@]4(C)[C@H]3CC[C@]12C [Progesterone, progesterone] | 100% | 98.7 ± 7.3% | 98.7 ± 12.2% | 99.8 ± 14.1% | 98.1 ± 13.9% | 91 ± 9.5% |  |
| C[C@H]1C[C@@H]2[C@H]([C@@H](O)C[C@@]3(C)[C@H]2CC[C@]3(O)C(=O)CO)[C@@]2(C)C=CC(=O)C=C12 [Methyl-prednisolone, methylprednisolone] | 100% | 107 ± 3.1% | 111 ± 9.4% | 105 ± 8.9% | 105 ± 14.3% | 105 ± 16% | Literature Log EC50 (androgen receptor [4]): -8.75; Log EC50 (human androgen receptor [5]; Clone 8, 24 h): -7.60 ± 0.43; Log EC50 (human androgen receptor [5]; Clone 14, 24 h): -7.48 ± 0.30 |
| C[C@]12CCC(=O)C[C@@H]1CC[C@@H]1[C@@H]2CC[C@]2(C)[C@@H](O)CC[C@@H]12 [5α-dihydrotestosterone] |  |  |  |  |  |  | viability at 24 h, 10 μM (in vitro; [6]): 104 ± 2%; viability at 24 h, 1 μM (in vitro; [7]): 108 ± 2.6%; viability at 24 h, 100 nM (in vitro; [8]): 114 ± 5.7%; viability at 24 h, 10 nM (in vitro; [9]): 109 ± 2.1%; viability at 24 h, 1 nM (in vitro; [10]): 108 ± 4.6%; viability at 24 h, 0.1 nM (in vitro; [11]): 100% |
| C[C@]12CCC(=O)C=C1CC[C@@H]1[C@@H]2[C@@H](O)C[C@]2(C=O)[C@@H](C(=O)CO)CC[C@@H]12 [Aldosterone, aldosterone] |  |  |  |  |  |  | viability at 24 h, 10 μM (in vitro; [6]): 97 ± 5.4%; viability at 24 h, 1 μM (in vitro; [7]): 98.6 ± 0.8%; viability at 24 h, 100 nM (in vitro; [8]): 99 ± 1.4%; viability at 24 h, 10 nM (in vitro; [9]): 99.4 ± 1%; viability at 24 h, 1 nM (in vitro; [10]): 110 ± 1.4%; viability at 24 h, 0.1 nM (in vitro; [11]): 100%; Literature Log EC50 (androgen receptor [3]): > -5.00; Literature Log EC50 (androgen receptor [4]): > -5.00; effect on luciferase activity in agonist mode (human androgen receptor [5]): did not significantly increased luciferase activity; Log EC50 (human androgen receptor [5]; Clone 8, 24 h): -6.03 ± 0.04; Log EC50 (human androgen receptor [5]; Clone 14, 24 h): -6.11 ± 0.02 |
| O=C(c1ccc(OCCN2CCCCC2)cc1)c1c(-c2ccc(O)cc2)sc2cc(O)ccc12 [Raloxifene hydrochloride, raloxifene hydrochloride] | 100% | 103 ± 8.5% | 99.8 ± 4.3% | 106 ± 6.8% | 95.9 ± 10.3% | 7.1 ± 0.2% |  |
| C[C@]12C=CC(=O)C=C1CC[C@@H]1[C@@H]2[C@@H](O)C[C@@]2(C)[C@H]1CC[C@]2(O)C(=O)CO [Prednisolone, prednisolone] | 100% | 100.7 ± 0.8% | 104 ± 3.7% | 107 ± 5.2% | 104 ± 5.2% | 101 ± 8.3% |  |
| CC#C[C@]1(O)CC[C@H]2[C@@H]3CCC4=CC(=O)CCC4=C3[C@@H](c3ccc(N(C)C)cc3)C[C@@]21C [Mifepristone, mifepristone] | 100% | 104 ± 2.8% | 102 ± 9.7% | 104 ± 18.2% | 94.7 ± 9.5% | 41.7 ± 1.1% |  |
| CC/C(=C(\c1ccccc1)c1ccc(OCCN(C)C)cc1)c1ccccc1 [Tamoxifen citrate, tamoxifen citrate salt] | 100% | 103 ± 4.3% | 107 ± 4.6% | 106 ± 3.8% | 88.5 ± 2.4% | 1.7 ± 0.8% |  |
| CC(=O)O[C@]1(C(C)=O)CC[C@H]2[C@@H]3C=C(Cl)C4=CC(=O)[C@@H]5C[C@@H]5[C@]4(C)[C@H]3CC[C@@]21C [Cyproterone acetate, cyproterone acetate] | 100% | 105 ± 1.7% | 105 ± 2% | 106 ± 5.7% | 99.4 ± 7.8% | 89.5 ± 6.6% |  |
| C[C@]12CCC(=O)C=C1CC[C@@H]1[C@@H]2[C@@H](O)C[C@@]2(C)[C@H]1CC[C@]2(O)C(=O)CO [Cortisol, cortisol] |  |  |  |  |  |  | viability at 24 h, 10 μM (in vitro; [6]): 105 ± 10.4%; viability at 24 h, 1 μM (in vitro; [7]): 107 ± 12.3%; viability at 24 h, 100 nM (in vitro; [8]): 107 ± 13.2%; viability at 24 h, 10 nM (in vitro; [9]): 106 ± 9.1%; viability at 24 h, 1 nM (in vitro; [10]): 109 ± 4.1%; viability at 24 h, 0.1 nM (in vitro; [11]): 100%; Literature Log EC50 (androgen receptor [3]): > -5.00; Literature Log EC50 (androgen receptor [4]): -8.22; potency weaker as compared to androgens (human androgen receptor [5]): 2–3 orders of magnitude; effect on luciferase activity in agonist mode (human androgen receptor [5]): induced luciferase activity; Log EC50 (human androgen receptor [5]; Clone 8, 24 h): -6.35 ± 0.11; Log EC50 (human androgen receptor [5]; Clone 14, 24 h): -6.49 ± 0.04 |
| C[C@H]1C[C@H]2[C@@H]3CCC4=CC(=O)C=C[C@]4(C)[C@@]3(Cl)[C@@H](O)C[C@]2(C)[C@@]1(O)C(=O)CO [Beclomethasone, beclomethasone] |  |  |  |  |  |  | % of viability (AIZ-AR cells; log c -5): 92.3 ± 2.1%; % of viability (AIZ-AR cells; log c -6): 98.4 ± 0.9%; % of viability (AIZ-AR cells; log c -7): 109.2 ± 5.7%; % of viability (AIZ-AR cells; log c -8): 106.5 ± 6.1%; % of viability (AIZ-AR cells; log c -9): 99.9 ± 3.9% |
